Format in all cases: functional
One assay concerns Aspergillus niger. Put plainly: Antifungal activity against Aspergillus niger by cup-plate method.
Assay [1] relates to Metaphire posthuma. Briefly: Antihelminthic activity against Metaphire posthuma assessed as time of occurrence of death.
A further assay concerns Klebsiella pneumoniae. Put plainly: Antibacterial activity against Klebsiella pneumoniae by cup-plate method.
Assay [2] relates to Metaphire posthuma. Briefly: Antihelminthic activity against Metaphire posthuma assessed as time of occurrence of paralysis.
The test system of the next assay is Candida albicans. Put plainly: Antifungal activity against Candida albicans by cup-plate method.
The next assay relates to Staphylococcus aureus. Put plainly: Antibacterial activity against Staphylococcus aureus by cup-plate method.

Experimental findings from ChEMBL document CHEMBL3045277, “Synthesis and biological activity of novel 1H-1,4-diazepines containing benzene sulfonyl piperazine moiety” (2011) are described below.

For `CC(=O)Nc1ccc(S(=O)(=O)N2CCN(CCCC3C(C)=NCCN=C3c3ccccc3)CC2)cc1` (stereo unspecified), the “inhibition zone (IZ)” value came out at 20 mm with Aspergillus niger, 19 mm with Klebsiella pneumoniae, 20 mm in the assay on Candida albicans and 20 mm in the assay on Staphylococcus aureus. The figures for the Time in the assay on Metaphire posthuma [1] and in the assay on Metaphire posthuma [2] were 111 min and 91 min, respectively.

As for `CC(=O)Nc1ccc(S(=O)(=O)N2CCN(CCCC3C(c4ccccc4)=NCCN=C3c3ccccc3)CC2)cc1`, the “inhibition zone (IZ)” value in the assay with Aspergillus niger was found to be 18 mm; with Klebsiella pneumoniae, 19 mm; with Candida albicans, 19 mm; with Staphylococcus aureus, 17 mm. Also, the Time is 110 min with Metaphire posthuma [1] and 93 min with Metaphire posthuma [2].

With `CC(=O)Nc1ccc(S(=O)(=O)N2CCN(CCCC3C(=O)NCCN=C3C)CC2)cc1` (stereo unspecified), the “inhibition zone (IZ)” value worked out at 17 mm with Aspergillus niger, 17 mm with Klebsiella pneumoniae, 16 mm in the assay with Candida albicans and 16 mm in the assay with Staphylococcus aureus. The Time in the assay with Metaphire posthuma [1] amounted to 119 min; in the assay with Metaphire posthuma [2] it was 102 min.

As to `Cc1cc(C2CCCCC2)n(O)c(=O)c1.NCCO` [CICLOPIROX OLAMINE], the “inhibition zone (IZ)” value in the assay on Aspergillus niger is 22 mm; with Candida albicans it was 24 mm.

On to `C1CNCCN1.C1CNCCN1.C1CNCCN1.O.O=C(O)CC(O)(CC(=O)O)C(=O)O.O=C(O)CC(O)(CC(=O)O)C(=O)O` [PIPERAZINE CITRATE], for which the values for the Time in the assay on Metaphire posthuma [1] and in the assay on Metaphire posthuma [2] were 125 min and 100 min, respectively.

With `CC(=O)Nc1ccc(S(=O)(=O)N2CCN(CCCC3C(=O)NCCNC3=O)CC2)cc1`, the “inhibition zone (IZ)” value with Aspergillus niger worked out at 15 mm; in the assay on Klebsiella pneumoniae, 15 mm; in the assay on Candida albicans, 13 mm; in the assay with Staphylococcus aureus, 13 mm. In addition, the Time in the assay with Metaphire posthuma [1] is 122 min; in the assay with Metaphire posthuma [2], 103 min.

`O=C(O)c1cn(C2CC2)c2cc(N3CCNCC3)c(F)cc2c1=O` [CIPROFLOXACIN]: the “inhibition zone (IZ)” value in the assay with Klebsiella pneumoniae is reported as 26 mm; in the assay on Staphylococcus aureus, 24 mm.

With `CC(=O)Nc1ccc(S(=O)(=O)N2CCN(CCCC3C(C)=NCCN=C3C)CC2)cc1`, the “inhibition zone (IZ)” value with Aspergillus niger is on record as 19 mm; with Klebsiella pneumoniae, 21 mm; in the assay with Candida albicans, 21 mm; in the assay with Staphylococcus aureus, 19 mm. In addition, the Time in the assay on Metaphire posthuma [1] amounted to 103 min; in the assay on Metaphire posthuma [2], 92 min.
